From patent publication US8008306B2, “Quinoline compounds” (Kowa Company, Ltd., priority 2008, dated 2011)

How the values were obtained:
LXRβ (versus LXRα) = biological target: T1, LXRβ (versus LXRα) (Homo sapiens, UniProt P55055); conditions: from Hu et al., Bioorg. Med. Chem. Lett., 18, pp. 54-59, 2008; cited from earlier work
T1 sequence (P55055 1-460): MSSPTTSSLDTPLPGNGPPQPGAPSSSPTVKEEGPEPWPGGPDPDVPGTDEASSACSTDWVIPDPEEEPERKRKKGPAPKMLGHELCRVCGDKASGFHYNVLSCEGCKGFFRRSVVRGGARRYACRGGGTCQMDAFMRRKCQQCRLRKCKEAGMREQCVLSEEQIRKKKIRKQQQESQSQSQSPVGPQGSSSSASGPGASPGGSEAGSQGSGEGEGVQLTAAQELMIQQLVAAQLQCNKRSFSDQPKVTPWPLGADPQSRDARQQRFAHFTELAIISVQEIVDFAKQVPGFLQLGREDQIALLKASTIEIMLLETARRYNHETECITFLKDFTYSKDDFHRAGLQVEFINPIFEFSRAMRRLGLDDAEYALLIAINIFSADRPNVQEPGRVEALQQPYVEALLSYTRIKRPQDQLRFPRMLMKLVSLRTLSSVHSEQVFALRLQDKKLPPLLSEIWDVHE

[1] = biological target: T2, LXRβ/GAL4 hybrid (LBD of human LXRβ), compared with LXRα/GAL4 (Homo sapiens, UniProt P55055); test: Transactivation assay (GAL4-responsive luciferase reporter); format: cell-based; conditions: CHOK-1 cells stably expressing LXRα/GAL4 or LXRβ/GAL4 and pG5luc; 0.01-10 μM, 24 hours; % eff relative to T0901317 at 10 μM = 100; data in FIGS. only
T2 construct: expressed in transfected cells; host or cells: CHOK-1 cells stably expressing the hybrid and pG5luc
T2 sequence (P55055 222-460 limits assumed): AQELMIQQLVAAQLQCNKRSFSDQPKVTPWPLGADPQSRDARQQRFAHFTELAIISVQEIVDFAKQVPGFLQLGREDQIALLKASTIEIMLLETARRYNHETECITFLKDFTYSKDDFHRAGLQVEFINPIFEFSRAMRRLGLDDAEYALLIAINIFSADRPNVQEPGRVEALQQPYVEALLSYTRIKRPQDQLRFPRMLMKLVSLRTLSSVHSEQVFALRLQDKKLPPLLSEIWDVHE
From the text: The ligand-binding domain (LBD) of a human LXRα and LXRβ cDNA was inserted adjacent to an yeast GAL4-transcription factor DNA-binding domain (DBD) of a mammal expression vector pBIND (Promega) to prepare an expression construct, thereby to produce pBIND-LXRα/GAL4 and pBIND-LXRβ/GAL4, respectively. PG5luc, a GAL4-responsive reporter construct, is a known vector that is available from Promega, and contains 5 copies of GAL4-response element located adjacent to the promoter as well as a luciferase reporter gene.
An LXRα/GAL4 or LXRβ/GAL4 hybrid and GAL4-responsive reporter vector pG5luc-stable-expression CHOK-1 cells were seeded under 5% CO2 wet atmosphere at 37° C., at 20,000 cells/well on a 96-well plate containing HAM-F12 medium containing 10% […] bovine fetal serum, 100 units/ml of penicillin G, and 100 μg/ml of streptomycin sulfate. […] By using Bright-Glo (Promega) as a luciferase assay substrate, and measuring the luminescence intensity with luminometer LB960 (Berthold Technologies), the effect of the test compound on the activation of luciferase transcription via the LXRα- or LXRβ-LBD was measured. At the same time, T0901317 (the compound of Example 12 of WO2000/54759) and WAY-254011 (compound 4 of Hu et al., Bioorg. Med. Chem. Lett., 18, pp. 54-59, 2008) were assessed as comparative compounds. […]

O=C(O)Cc1ccc(COc2cccc(-c3c(Cc4ccccc4)cnc4c(C(F)(F)F)cccc34)c2)cc1 [WAY-254011]
LXRβ-selective binding affinity (α/β ratio) (LXRβ (versus LXRα)): 1 to 5 | LXRβ-selective agonist effect (luciferase activity via LXRα- or LXRβ-LBD) [1]: not found to have an LXRβ-selective agonist effect
